Among the data in ChEMBL document CHEMBL4028839, “Synthesis of octapeptin C4 and biological profiling against NDM-1 and polymyxin-resistant bacteria” (Bioorg Med Chem Lett, 2017) are MIC and CC50 values, retold here.

The test system of data set [1] is Pseudomonas aeruginosa. Kind of data set: Antimicrobial activity against polymyxin-resistant Pseudomonas aeruginosa clinical isolate FADDI-PA070 measured after 24 hrs. It counts as functional.
Data set [2] relates to Pseudomonas aeruginosa. Kind of data set: Antimicrobial activity against polymyxin-resistant Pseudomonas aeruginosa clinical isolate PA9704 measured after 24 hrs. It counts as functional.
The subject of data set [3] is Pseudomonas aeruginosa. The experiment in a line: Antimicrobial activity against Pseudomonas aeruginosa ATCC 27853 measured after 24 hrs. It counts as functional.
Data set [4] concerns Klebsiella pneumoniae. Kind of data set: Antimicrobial activity against NDM-1 positive Klebsiella pneumoniae BAA-2146 measured after 24 hrs. It counts as functional.
Data set [5] concerns Klebsiella pneumoniae. Kind of data set: Antimicrobial activity against Klebsiella pneumoniae ATCC 13883 measured after 24 hrs. It counts as functional.
In a further data set the test system is Acinetobacter baumannii. Kind of data set: Antimicrobial activity against Acinetobacter baumannii ATCC 19606 measured after 24 hrs. It counts as functional.
For data set [6], the system named is Klebsiella quasipneumoniae subsp. Similipneumoniae. The experiment in a line: (§1) Antimicrobial activity against multi-drug resistant Klebsiella quasipneumoniae subsp. similipneumoniae ATCC 700603 measured after 24 hrs. It counts as functional.
In a further data set the test system is Escherichia coli. The experiment in a line: Antimicrobial activity against Escherichia coli ATCC 25922 measured after 24 hrs. It counts as functional.
The subject of the next data set is Staphylococcus aureus. Kind of data set: Antimicrobial activity against meticillin-susceptible Staphylococcus aureus ATCC 25923 measured after 24 hrs. It counts as functional.
In the next data set the test system is RPTEC. Kind of data set: (§2) Cytotoxicity against human RPTEC after 24 hrs by LDH assay. The following applies: rptec, 24 h. It counts as cell-based.
Another data set deals with HK-2. Kind of data set: (§3) Cytotoxicity against HK2 cells after 24 hrs by LDH assay. It counts as cell-based. The settings on record: human, hk-2, 24 h.
A short description of data set [7]: as §2. It counts as cell-based. The settings on record: RPTEC cells.
Data set [8] is described as follows: as §3. It counts as cell-based, HK-2. The following applies: human, HK-2 cells.
A short description of data set [9]: as §1. It counts as functional. The settings on record: ATCC 700603, 24 h.
Where [10] appears, read: ATCC 19606 = CIP 70.34 = JCM 6841, 24 h.

Values after ≈ are worked out from the molar mass of the structure shown. Bridge positions count the residues as written; N and C are the ends. Square brackets hold non-standard residues; d marks the D form. Peptide text beside a SMILES is read from it. * marks the point of attachment. Decanoyl(3R-OH) = CCCCCCC[C@@H](O)CC(=O)*; dDab = NCC[C@@H](N)C(=O)O; Dab = NCC[C@H](N)C(=O)O

By MIC is commonly meant the smallest concentration in the dilution series that meets the test's criterion for growth inhibition. Read a high MIC as weaker potency. For the compound POLYMYXIN B [listing 1 of 2 here], the MIC with Pseudomonas aeruginosa [1] stood at 32 µg/mL; against Pseudomonas aeruginosa [2] it was 128 µg/mL; with Pseudomonas aeruginosa [3], 0.5 µg/mL; against Klebsiella pneumoniae [4] (ATCC BAA-2146) it was 0.25 µg/mL; with Klebsiella pneumoniae [5] it was 0.25 µg/mL; against Acinetobacter baumannii (ATCC 19606 = CIP 70.34 = JCM 6841), 0.25 µg/mL. Besides, the results for the MIC (in [6]; in the data set with Escherichia coli; in the data set on Staphylococcus aureus) were 0.25 µg/mL, 0.25 µg/mL and more than 64 µg/mL, respectively.
A word on the CC50: it is the concentration at which the toxic effect on the cells reaches its halfway point. A low value points to harm at low concentration. Turning to POLYMYXIN B [listing 2 of 2 here], the 50% cytotoxic concentration (CC50) in the data set on RPTEC was more than 300 µM; in the data set on HK-2 it was 135 µM.
`CCCCCCC[C@@H](O)CC(=O)N[C@H](CCN)C(=O)N[C@@H](CCN)C(=O)N[C@@H](CCN)C(=O)N[C@H](Cc1ccccc1)C(=O)N[C@@H](CC(C)C)C(=O)N[C@@H](CCN)C(=O)N[C@@H](CCN)C(=O)N[C@@H](CC(C)C)C(=O)O` [listing 1 of 2 here]: the values for the CC50 at 24 h in [7] and in data set [8] were 71 µM and 139 µM, respectively.
As for `CCCCCCC[C@@H](O)CC(=O)N[C@H](CCN)C(=O)N[C@H]1CCNC(=O)[C@H](CC(C)C)NC(=O)[C@H](CCN)NC(=O)[C@H](CCN)NC(=O)[C@H](CC(C)C)NC(=O)[C@@H](Cc2ccccc2)NC(=O)[C@H](CCN)NC1=O` ({Decanoyl(3R-OH)}-[dDab][Dab][Dab][dF]L[Dab][Dab]L; lactam 2-C), the MIC with Pseudomonas aeruginosa [1] (isolate FADDI-PA070, 24 h) amounted to 2 µg/mL (≈ 1.92 µM); with Pseudomonas aeruginosa [2] (isolate PA9704, 24 h), 2 µg/mL (≈ 1.92 µM); against Pseudomonas aeruginosa [3] (ATCC 27853, 24 h), 2 µg/mL (≈ 1.92 µM); with Klebsiella pneumoniae [4] (ATCC BAA-2146, 24 h) it was 8 µg/mL (≈ 7.66 µM); with Klebsiella pneumoniae [5] (ATCC 13883, 24 h), 8 µg/mL (≈ 7.66 µM); against Acinetobacter baumannii (setting [10]), 4 µg/mL (≈ 3.83 µM). In addition, the MIC was 8 µg/mL (≈ 7.66 µM) in data set [9]; 4 µg/mL (≈ 3.83 µM) with Escherichia coli (ATCC 25922, 24 h); 16 µg/mL (≈ 15.3 µM) against Staphylococcus aureus (ATCC 25923, 24 h). Further, the CC50 at 24 h amounted to 39 µM in [7] and 31 µM in [8].
Turning to `CCCCCCC[C@@H](O)CC(=O)N[C@H](CCN)C(=O)N[C@@H](CCN)C(=O)N[C@@H](CCN)C(=O)N[C@H](Cc1ccccc1)C(=O)N[C@@H](CC(C)C)C(=O)N[C@@H](CCN)C(=O)N[C@@H](CCN)C(=O)N[C@@H](CC(C)C)C(=O)O` [listing 2 of 2 here], the MIC in the data set on Pseudomonas aeruginosa [1] (isolate FADDI-PA070, 24 h) was 32 µg/mL (≈ 30.1 µM); against Pseudomonas aeruginosa [2] (isolate PA9704, 24 h), more than 32 µg/mL; against Pseudomonas aeruginosa [3] (ATCC 27853, 24 h), 4 µg/mL (≈ 3.77 µM); in the data set on Klebsiella pneumoniae [4] (ATCC BAA-2146, 24 h), more than 32 µg/mL; against Klebsiella pneumoniae [5] (ATCC 13883, 24 h), more than 32 µg/mL; in the data set with Acinetobacter baumannii (setting [10]) it was more than 32 µg/mL. In addition, the MIC in data set [9] came to 16 µg/mL (≈ 15.1 µM); in the data set with Escherichia coli (ATCC 25922, 24 h), 16 µg/mL (≈ 15.1 µM); in the data set with Staphylococcus aureus (ATCC 25923, 24 h) it was 32 µg/mL (≈ 30.1 µM).
